EC50, Emax and Ratio EC50 data for 44 molecules are collected here from ChEMBL document CHEMBL5233265, “Recent advances in the design and development of formyl peptide receptor 2 (FPR2/ALX) agonists as pro-resolving agents with diverse therapeutic potential” (Eur J Med Chem, 2021).

Molecules are shown by their SMILES.

Common to all, as to assay type: cell-based
The target of test [1] is T1, fMet-Leu-Phe receptor (Homo sapiens, UniProt P21462).
T1 sequence (P21462 whole entry): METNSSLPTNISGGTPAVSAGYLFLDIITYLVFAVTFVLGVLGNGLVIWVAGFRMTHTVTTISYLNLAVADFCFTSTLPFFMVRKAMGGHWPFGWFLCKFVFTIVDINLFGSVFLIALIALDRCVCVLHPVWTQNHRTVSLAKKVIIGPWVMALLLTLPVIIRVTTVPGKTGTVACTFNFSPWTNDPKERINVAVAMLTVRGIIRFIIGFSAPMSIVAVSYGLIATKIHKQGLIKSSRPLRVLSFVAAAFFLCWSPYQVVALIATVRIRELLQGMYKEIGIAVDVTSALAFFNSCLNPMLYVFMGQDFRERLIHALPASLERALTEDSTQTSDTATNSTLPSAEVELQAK
The test can be described thus: Agonist activity at human FPR1 expressed in CHO cells assessed as cAMP level incubated for 1.5 hr by HTRF assay. (Cyclic AMP is a second messenger, typically raised through Gs and lowered through Gi signalling.)

Test [2] has as its target T1, fMet-Leu-Phe receptor. The test can be described thus: Agonist activity at human FPR1 transfected in HL-60 cells assessed as increase in intracellular calcium flux incubated for 30 mins by Fluo-4 AM dye based fluorometer analysis. To be noted: hl-60. Background: Calcium flux is commonly read through the fluorescence of an indicator in the cells.
Test [3] concerns the target T2, N-formyl peptide receptor 2 (Homo sapiens, UniProt P25090).
T2 sequence (P25090 whole entry): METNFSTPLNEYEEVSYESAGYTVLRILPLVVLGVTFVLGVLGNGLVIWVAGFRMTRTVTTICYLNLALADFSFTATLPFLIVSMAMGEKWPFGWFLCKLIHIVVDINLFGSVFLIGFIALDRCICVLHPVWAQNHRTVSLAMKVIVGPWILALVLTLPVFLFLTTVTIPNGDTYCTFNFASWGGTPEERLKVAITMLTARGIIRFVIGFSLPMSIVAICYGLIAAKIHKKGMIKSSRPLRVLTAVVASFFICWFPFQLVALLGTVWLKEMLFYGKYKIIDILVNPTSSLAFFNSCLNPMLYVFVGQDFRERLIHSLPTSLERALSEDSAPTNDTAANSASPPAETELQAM
In words: Agonist activity at human FPR2 transfected in HL-60 cells assessed as increase in intracellular calcium flux incubated for 30 mins by Fluo-4 AM dye based fluorometer analysis. The note with it: hl-60.

Test [4] has as its target T2, N-formyl peptide receptor 2. In words: Agonist activity at human FPR2 expressed in CHO cells assessed as cAMP level incubated for 1.5 hr by HTRF assay.
Test [5] concerns the target T3, N-formyl peptide receptor 2 (Homo sapiens) (UniProt P25090).
T3 sequence (whole entry): T2 sequence (P25090 whole entry)
The test can be described thus: Agonist activity at FPR2 (unknown origin) expressed in CHO/Galpha16 cells assessed as maximal calcium flux at 0.61 to 10000 nM by FLIPR assay relative to control. The note with it: dose 0.61-10000 nM.

The species named for test [6] is Homo sapiens. The test can be described thus: Selectivity index, ratio of EC50 for agonist activity at FPR2 (unknown origin) expressed in CHO/Galpha16 cells to EC50 for FPR1 (unknown origin) expressed in CHO/Galpha16 cells.
Test [7] concerns the target T4, fMet-Leu-Phe receptor (Homo sapiens) (UniProt P21462).
T4 sequence (whole entry): T1 sequence (P21462 whole entry)
In words: Agonist activity at FPR1 (unknown origin) expressed in CHO/Galpha16 cells assessed as maximal calcium flux at 0.61 to 10000 nM by FLIPR assay relative to control. The note with it: dose 0.61-10000 nM.

Test [8] has as its target T1, fMet-Leu-Phe receptor. In words: Agonist activity at human FPR1 expressed in CHO cells assessed as increase in calcium flux incubated for 50 mins by FLIPR calcium 5 dye based fluorescence assay.
The target in test [9] is T2, N-formyl peptide receptor 2. The test can be described thus: Agonist activity at human FPR2 expressed in CHO cells assessed as increase in calcium flux incubated for 50 mins by FLIPR calcium 5 dye based fluorescence assay.

As a reminder, the EC50 is the concentration needed to bring the measured effect to its halfway point. On to `CP(C)(=O)c1ccccc1-c1ccc(N2CC3(CC3)[C@@H](NC(=O)Nc3ccc(Cl)cc3F)C2=O)c(F)c1F`, for which, in [1] (read-out: EC50), the 50% effective concentration (EC50) was over 5000 nM.

With `N#Cc1ccc(C[C@@H](NC(=O)Nc2ccc(O)cc2)C(=O)NCC2(c3ccccc3)CC2)cc1`, the half-maximal effective concentration (EC50) entry in [2] and in [3] was “Not Active” in each case.

As to `CS(=O)(=O)NCC1(c2ccc(N3CCC[C@@H](NC(=O)Nc4ccc(C(F)(F)F)nc4)C3=O)cc2)CCCC1`, the EC50 entry in test [1] (cho) is “Not Active”; in test [4], under 100 nM.

With `Cc1cnc(NC(=O)N[C@@H]2CCCN(c3ccc(-c4ccccc4NS(C)(=O)=O)cc3F)C2=O)cn1`, the EC50 in [1] (read-out: EC50) is 2000 nM; in test [4], 22 nM.

As a reminder, the Emax is the greatest response seen or fitted, relative to the assay's reference. Regarding `CC(C)C[C@H](NC(=O)CCNC(=O)Nc1ccc(Br)cc1)C(=O)O`, the Emax in test [5] was found to be 81%; in test [7], 99%. Besides, the Ratio EC50 in test [6] stood at 74.

`COc1ccc([C@@H]2CCN(Cc3ccccn3)C(=O)[C@@H]2NC(=O)Nc2ccc(F)cc2)cc1` (relative stereo): the EC50 in [8] and in [9] was 1 nM throughout.

For `CS(=O)(=O)Nc1ccccc1-c1ccc(N2CCC[C@@H](NC(=O)Nc3cnc(Cl)cn3)C2=O)cc1`, the concentration giving a half-maximal response (EC50) entry in test [1] (cho) is “Not Active”; in [4], under 5 nM.

Take `O=C(Nc1ccc(C(F)(F)F)cc1)N[C@@H]1CCCN(c2ccc(-c3ccccc3C(=O)O)cc2)C1=O`: in test [4], the 50% effective concentration (EC50) came to 5 nM.

Consider `NC(=O)c1ccccc1-c1ccc(N2CCC[C@H](NC(=O)Nc3ccc(C(F)(F)F)cc3)C2=O)cc1`, for which, in [4], the EC50 turned out to be 40 nM.

`O=C(Nc1ccc(C(F)(F)F)cc1)NC1CCCN(c2ccc(-c3ccccc3F)cc2)C1=O` (racemic): the concentration giving a half-maximal response (EC50) in [4] is under 5 nM.

As for `CC(C)C(C(=O)O)C(C)NC(=O)Nc1ccc(Br)cc1` (stereo in doubt; 19), the values for the Emax in [5] and in test [7] were 56% and 103%, respectively. The Ratio EC50 in test [6] is 249.

For the molecule `CP(C)(=O)c1ccccc1-c1ccc(N2CC[C@@H](NC(=O)Nc3ccc(Cl)cc3)C2=O)c(F)c1F`, in [4], the half-maximal effective concentration (EC50) turned out to be 25 nM.

For `COc1cc(F)c([C@@H]2CN(CC3CC3)C(=O)[C@H]2NC(=O)NC2(c3cccc(C)n3)CC2)c(F)c1`, the EC50 result is “Not Active” in [1] (cho) and under 10 nM in test [4].

As for `NC(=O)c1ccccc1-c1ccc(N2CCC[C@@H](NC(=O)Nc3ccc(C(F)(F)F)cc3)C2=O)cc1`, the EC50 in [4] was under 5 nM.

Turning to `NC(=O)c1ccccc1-c1ccc(N2CCCC(NC(=O)Nc3ccc(C(F)(F)F)cc3)C2=O)cc1` (racemic), the 50% effective concentration (EC50) in [4] is 40 nM.

With `NC(=O)c1ccccc1-c1ccc(N2CCC[C@@H](NC(=O)Nc3ccc(Cl)cc3)C2=O)cc1`, in test [4], the EC50 is under 5 nM.

`COc1cc(F)c([C@H]2CCN(CCC(F)F)C[C@@H]2NC(=O)Nc2ccc(Cl)cc2)c(F)c1` (relative stereo; form 2): the EC50 is 1 nM in [8] (cho) and under 1 nM in [9].

In the case of `COc1cc(F)c([C@@H]2CNC(=O)[C@H]2Nc2nnc(-c3ccc(Cl)cc3)s2)c(F)c1`, the EC50 entry in [1] (cho) was “Not Active”; in test [4], under 40 nM.

On to `COc1ccc([C@H]2CCN(Cc3ccccn3)C(=O)[C@@H]2NC(=O)Nc2ccc(F)cc2)cc1` (relative stereo), for which the 50% effective concentration (EC50) in test [8] is 1 nM; in test [9] it was under 1 nM.

On to `O=C(Nc1ccc(C(F)(F)F)cc1)N[C@H]1CCCN(c2ccc(-c3ccccc3C(=O)O)cc2)C1=O`, for which the EC50 in test [4] is 40 nM.

Take `CCC[C@H](NC(=O)CNC(=O)Nc1ccc(Br)cc1)C(=O)O`: the values for the Emax in test [5] and in test [7] were 105% and 98%, respectively. Further, the Ratio EC50 in [6] worked out at 62.

As to `N#Cc1ccc(C[C@H](NC(=O)Nc2ccc(O)cc2)C(=O)NCC2(c3ccccc3)CC2)cc1`, the EC50 entry in test [2] and in test [3] was “Not Active” throughout.

For the molecule `CC(C)C(C(=O)O)C(C)NC(=O)Nc1ccc(Br)cc1` (stereo in doubt; 20), the figures for the Emax in test [5] and in test [7] were 75% and 91%, respectively. The Ratio EC50 in [6] stood at 101.

As to `CS(=O)(=O)Nc1ccccc1-c1ccc(N2CCC[C@@H](NC(=O)Nc3ccc(C(F)(F)F)nc3)C2=O)cc1`, the EC50 entry was “Not Active” in test [1] (cho) and under 5 nM in [4].

In the case of `O=C(Nc1ccc(C(F)(F)F)cc1)N[C@@H]1CCCN(c2ccc(N3CCOCC3)cc2)C1=O`, the EC50 in test [4] was under 10 nM.

With `Cc1cccc(C2(NC(=O)N[C@@H]3C(=O)NC[C@H]3c3c(F)cc(Cl)cc3F)CC2)n1`, the EC50 entry is “Not Active” in test [1] (cho) and 100 nM in test [4].

Regarding `CC1(C)CN(c2ccc(-c3ccccc3P(C)(C)=O)c(F)c2F)C(=O)[C@@H]1NC(=O)Nc1cnc(Cl)cn1`, the half-maximal effective concentration (EC50) in [4] was found to be 57 nM.

Consider `O=C(Nc1ccc(C(F)(F)F)cc1)N[C@@H]1CCCN(c2ccc(-c3ccccc3F)cc2)C1=O`, for which the EC50 in test [4] was under 5 nM.

In the case of `COc1ccc([C@H]2CCNC(=O)[C@@H]2NC(=O)Nc2ccc(Cl)cc2)cc1`, the EC50 in [9] was under 1 nM.

Regarding `COc1cc(F)c([C@H]2CCN(CC3CC3)C(=O)[C@@H]2NC(=O)Nc2ccc(Cl)cc2)c(F)c1`, the EC50 is 1 nM in test [8] and under 1 nM in [9].

Turning to `Cc1cccc(C2(NC(=O)N[C@@H]3C(=O)NC[C@H]3c3c(F)cc(Br)cc3F)CC2)n1`, the EC50 result in test [1] (cho) was “Not Active”; in test [4], 10 nM.

In the case of `O=C(Nc1ccccc1F)N[C@@H]1CCCN(c2ccc(-c3ccccc3F)cc2)C1=O`, in test [4], the EC50 came out at 40 nM.

As to `COc1ccc([C@H]2CCN(Cc3cccnc3)C(=O)[C@@H]2NC(=O)Nc2ccc(F)cc2)cc1` (relative stereo), the concentration giving a half-maximal response (EC50) in [8] and in [9] was 1 nM in each case.

For the molecule `CC(=O)N1CCN(c2ccc(N3CCC[C@@H](NC(=O)Nc4ccc(C(F)(F)F)cc4)C3=O)cc2)CC1`, the concentration for a half-maximal effect (EC50) in [4] came out at 100 nM.

For `COc1cc(F)c([C@H]2CCN(CCC(F)F)C[C@@H]2NC(=O)Nc2ccc(Cl)cc2)c(F)c1` (relative stereo; form 1), the EC50 in [8] and in test [9] was 1 nM in each case.

For `O=C(CNC(=O)Nc1ccc(Br)cc1)N[C@@H](Cc1ccccc1)C(=O)O`, the Emax in [5] came to 197%; in [7], 97%. In addition, the Ratio EC50 in test [6] worked out at 24.

With `CN1CCN(c2ccc(N3CCC[C@@H](NC(=O)Nc4ccc(C(F)(F)F)cc4)C3=O)cc2)CC1`, the EC50 in test [4] was found to be 10 nM.

As to `CC(C)C[C@H](NC(=O)CNC(=O)Nc1ccc(Br)cc1)C(=O)O`, the values for the maximum response (Emax) in [5] and in test [7] were 91% and 100%, respectively. Further, the Ratio EC50 in [6] was found to be 386.

Turning to `CC(C)C(C(=O)O)C(C)NC(=O)Nc1ccc(Br)cc1` (stereo in doubt; 21), in [7], the maximal response (Emax) was found to be 93%.

Consider `O=C(Nc1ccc(C(F)(F)F)cc1)N[C@H]1CCCN(c2ccc(-c3ccccc3F)cc2)C1=O`, for which the EC50 in test [4] was determined as 40 nM.

As for `O=C(Nc1ccc(C(F)(F)F)cc1)N[C@@H]1CCCN(c2ccc(N3CC4(COC4)C3)cc2)C1=O`, the half-maximal effective concentration (EC50) in [4] amounted to 10 nM.

Take `CC(C)C(C(=O)O)C(C)NC(=O)Nc1ccc(Br)cc1` (stereo in doubt; 18): the figures for the Emax in [5] and in test [7] were 89% and 94%, respectively. For the same molecule, in test [6], the Ratio EC50 is 17.

In the case of `CP(C)(=O)c1ccccc1-c1ccc(N2CC[C@@H](NC(=O)Nc3csc(Cl)c3)C2=O)c(F)c1F`, the EC50 in test [4] is 2.9 nM.

Regarding `COc1cc(F)c([C@@H]2CNC(=O)[C@H]2NC(=O)NC2(c3cccc(C)n3)CC2)c(F)c1`, the concentration for a half-maximal effect (EC50) result in [1] (cho) was “Not Active”; in test [4], under 10 nM.
